Test results as given in US20200085828A1, “PHOSPHODIESTERASE INHIBITORS AND METHODS OF MICROBIAL TREATMENT” (Mavupharma, Inc., priority 2016, published 2020).

Legend:
[1] = biological target: T1, human recombinant ENPP1 (Homo sapiens, UniProt P22413); test: ENPP1 inhibition with 2′,3′-cGAMP substrate (AMP-Glo assay); assay type: biochemical; settings: for Ki: 20 μM 2′3′cGAMP, Ki from IC50 by Cheng-Prusoff, Km 15 μM; for inhibition at 1 µM: at 1 μM compound; for inhibition at 1 µM / inhibition at 10 µM: read-out: Inhibition of ENPP1 with cGAMP as the Substrate; for inhibition at 10 µM: at 10 μM compound
T1 sequence (P22413 1-925): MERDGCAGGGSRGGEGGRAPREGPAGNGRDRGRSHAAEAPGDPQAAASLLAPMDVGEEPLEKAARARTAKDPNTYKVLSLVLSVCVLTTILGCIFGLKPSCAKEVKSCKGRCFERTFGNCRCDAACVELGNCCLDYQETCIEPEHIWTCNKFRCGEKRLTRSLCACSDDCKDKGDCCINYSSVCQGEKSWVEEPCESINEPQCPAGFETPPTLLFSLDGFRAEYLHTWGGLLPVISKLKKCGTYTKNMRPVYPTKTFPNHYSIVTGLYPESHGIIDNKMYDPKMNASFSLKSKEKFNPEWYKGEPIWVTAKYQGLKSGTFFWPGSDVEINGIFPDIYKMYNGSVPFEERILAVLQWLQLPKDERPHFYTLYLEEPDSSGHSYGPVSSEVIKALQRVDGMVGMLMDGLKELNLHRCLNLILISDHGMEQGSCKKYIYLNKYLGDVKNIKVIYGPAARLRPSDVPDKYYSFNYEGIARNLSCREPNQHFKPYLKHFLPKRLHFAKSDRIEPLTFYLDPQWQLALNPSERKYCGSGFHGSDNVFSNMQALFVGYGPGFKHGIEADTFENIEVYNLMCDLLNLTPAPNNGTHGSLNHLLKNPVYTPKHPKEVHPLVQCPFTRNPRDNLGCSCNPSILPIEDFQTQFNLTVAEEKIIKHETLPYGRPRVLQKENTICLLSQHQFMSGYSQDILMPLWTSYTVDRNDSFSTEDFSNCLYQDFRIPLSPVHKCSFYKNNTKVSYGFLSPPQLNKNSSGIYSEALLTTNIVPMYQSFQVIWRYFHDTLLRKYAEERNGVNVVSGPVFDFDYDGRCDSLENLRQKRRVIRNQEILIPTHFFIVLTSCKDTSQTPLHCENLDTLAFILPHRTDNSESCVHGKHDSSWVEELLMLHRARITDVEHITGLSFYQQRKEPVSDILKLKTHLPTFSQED
Protocol: The AMP-Glo™ Assay Kit contains two reagents that are added sequentially. The first converts the 5′-AMP produced in the reaction to 5′ADP. The second converts the 5′-ADP to 5′ATP and reacts the 5′-ATP with the luciferase/luciferin pair to produce the luminescence signal. […] Inhibitors are added at final concentrations ranging between 10 μM and 30 pM depending on the compound. Duplicate wells are run at each inhibitor concentration. The final assay volume is 18 μL and human recombinant ENPP1 is present at 5 ng/well. The assay is initiated by the addition of substrate (20 μM 2′3′cGAMP final concentration), and incubated for 30 minutes at 37° C. To stop the reaction, 12 μl of AMP-Glo reagent I is added and the plate is incubated for 60 minutes at room temperature. 25 μl of AMP-detection reagent is then added and the wells are again incubated for 60 minutes at room temperature. The luminescence signal is then measured using a plate-reading luminometer. Each assay plate also includes wells with no enzyme added (MIN OD) and wells with no inhibitor added (MAX OD). The percent inhibition of ENPP1 for each sample is then calculated as: […]
IC50 values of compounds were calculated by entering the percent inhibition values into a sigmoidal variable slope nonlinear regression model in GraphPad Prism® software. IC50 values were converted to Ki values using the Cheng-Prusoff equation2 where the Km was 15 μM, based on internal determinations.

[2] = tested on: cGAMP activated THP-1 cells; test: PDE inhibitor library screen on cGAMP activated THP-1 cells, IFNβ ELISA; assay type: cell-based, human; settings: 10 μM compound, suboptimal 2′,3′-cGAMP, 24 hours
Protocol: THP-1 Cell Activation and Screening of Test Compounds: • (a) THP-1 cells from bulk cultures were counted and suspended in RPMI 1640, 20% FBS, 2.5 mM L-alanyl-L-glutamine at a concentration of 5.5×10^6 cells/mL. The THP-1 cells were subsequently seeded into 96 well round bottom plates—volume of 180 μL/well (1×10^6 cells per well), and the plate was incubated for 1 hour at 37° C., 5% CO2. • (b) Test compounds comprising known phosphodiesterase inhibitors (PDEs), were screened in triplicate (N1, N2, N3) on THP-1 cells. For compound screening, test compounds were assayed at a final concentration of 10 μM. A 200 μM (0.2 mM) working solution of each compound was prepared by diluting 10 mM DMSO stock solutions of each compound in media at a dilution of 50:1 (1640, 20% FBS, 2.5 mM L-alanyl-L-glutamine). […]
(i) Cell culture supernatants were harvested by centrifuging the plates at 200×g for 10 minutes. Cell culture supernatants were then transferred to a clean plate and stored at −80° C. until ready to analyze for IFNβ levels. • (j) IFNβ levels in cell culture supernatants were determined by ELISA according to the manufacturer's instructions (VeriKine Human IFNβ Assay). • (k) The interpolated data was normalized to vehicle control, or unstimulated control, and analyzed.

[3] = biological target: T1, human recombinant ENPP1; test: ENPP1 inhibition with AMP-pNP (ATP analog) substrate, absorbance at 405 nm; assay type: biochemical; settings: 300 μM AMP-pNP; Ki from IC50 by Cheng-Prusoff, Km 151 μM
Protocol: The ENPP1 assay with AMP-pNP substrate is conducted in a buffer containing 50 mM Tris-HCl (pH 8.5)/250 mM NaCl/0.5 mM CaCl2/1 μM ZnCl2/0.1% DMSO. Inhibitors are added at final concentrations ranging between 10 μM and 30 pM depending on the compound. Duplicate wells are run at each inhibitor concentration. The final assay volume is 40 μL and human recombinant ENPP1 is present at 60 ng/well. The assay is initiated by the addition of substrate (300 μM AMP-pNP final concentration), and incubated for 20 minutes at 37° C. […] Each assay plate also includes wells with no enzyme added (MIN OD) and wells with no inhibitor added (MAX OD). The percent inhibition of ENPP1 for each sample is then calculated as: […]
IC50 values of compounds were calculated by entering the percent inhibition values into a sigmoidal variable slope nonlinear regression model in GraphPad Prism® software.

| Substrate Selectivity Ki Ratio AMP-pNP/2′3′cGAMP ([1]; Ki (AMP-pNP)/Ki (2′3′-cGAMP)) | Ki [1] | SMILES | also measured |
| --- | --- | --- | --- |
|  | 44 nM | COc1cc2nccc(Oc3ccc(NS(=O)(=O)c4ccccc4)cc3)c2cc1OC [Compound 25] |  |
|  | 336 nM | CCN(C)S(=O)(=O)NCCC1CCN(c2ncnc3cc(OC)c(OC)cc23)CC1 [Compound 12] |  |
| >325 |  | COc1cc2nccc(Oc3ccc(CS(N)(=O)=O)cc3)c2cc1OC [Compound 6] |  |
|  | 1.8 nM | COc1cc2ncnc(-c3ccc4c(c3)CN(S(N)(=O)=O)CC4)c2cc1OC [Compound 21] | Ki [3]: 65.2 nM |

Second part, the molecule before the results:

| SMILES | Substrate Selectivity Ki Ratio AMP-pNP/2′3′cGAMP ([1]; Ki (AMP-pNP)/Ki (2′3′-cGAMP)) | Ki [1] | also measured |
| --- | --- | --- | --- |
| COc1ccc(CC(=O)CCC2=Nc3c(N)ccnc3C2)cc1OC [Compound 4] | >37500 |  | selectivity for inhibition of cGAMP over AMP-pNP hydrolysis by ENPP1 ([1]; Ki (AMP-pNP)/Ki (2′3′-cGAMP)): > 37,500 fold |
| O=c1cc(-c2ccc(O)c(O)c2)oc2cc(O)cc(O)c12 [Compound 1] |  |  | augmentation of cGAMP mediated IFNβ production [2]: augmentation of cGAMP mediated IFNβ production |
| COc1cc2ncnc(N3CCC4(CC3)CN(S(N)(=O)=O)C4)c2cc1OC [Compound 24] | 18.7 |  |  |
| COc1cc2nccc(Nc3ccc(NS(=O)(=O)c4ccccc4)cc3)c2cc1OC [Compound 14] |  | 29.1 nM | Ki [3]: 1830 nM |
| COc1cc2ncn(-c3ccc(CNS(N)(=O)=O)cc3)c2cc1OC [Compound 16] |  | 27.1 nM | Ki [3]: 1460 nM |
| COc1cc2ncnc(N3CCC(CCNS(N)(=O)=O)CC3)c2cc1OC [Compound 3] |  |  | inhibition at 1 µM [1]: 99%; inhibition at 10 µM [1]: 99%; augmentation of cGAMP mediated IFNβ production [2]: augmentation of cGAMP mediated IFNβ production |
| COc1cc2nc(-c3cccnc3)nc(N3CCC(CCNS(C)(=O)=O)CC3)c2cc1OC [Compound 23] | >23.9 |  |  |
| COc1ccc(NC(=O)CSc2nc3c(N)ncnc3[nH]2)cc1OC [Compound 2] |  |  | inhibition at 1 µM [1]: 99%; inhibition at 10 µM [1]: 99% |
| COc1cc2ncnc(N3CCC(CCN)CC3)c2cc1OC [Compound 5] |  | 46.7 nM |  |
| Cn1cnc2cccc(N3CCC(CCCS(C)(=O)=O)CC3)c21 [Compound 9] | >128 |  |  |
